Data as given in ChEMBL document CHEMBL3853324, “Optimizing Protonation States for Selective Double-Strand DNA Photocleavage in Hypoxic Tumors: pH-Gated Transitions of Lysine Dipeptides” (J Med Chem, 2016).
Active and inactive are the calls of the source. The calls are words filed in the database; no cut-off is given here.

Tests used:
[1] = Dissociation constant, pKa of the compound in D2O for first ionization at 1 mM by H1-NMR analysis; format: physicochemical
[2] = Dissociation constant, pKa of the compound for first ionization at 10 uM by fluorescence analysis; format: physicochemical
[3] = species: Bos taurus; assay: Binding affinity to calf thymus DNA assessed as binding constant at 15 uM and pH 6 by UV-spectroscopic analysis
[4] = Dissociation constant, pKa of the compound in D2O for second ionization at 1 mM by H1-NMR analysis; format: physicochemical
[5] = Displacement of ethidium bromide from DNA (unknown origin) assessed as Stem-Volmer quenching constant at pH 8 by UV-spectroscopic analysis; set-up: unit not given here
[6] = species: Bos taurus; assay: Binding affinity to calf thymus DNA assessed as binding constant at 15 uM and pH 7 by UV-spectroscopic analysis
[7] = tested on: Escherichia coli; assay: Induction of Escherichia coli supercoiled pBR322 plasmid DNA photocleavage at 15 uM and pH 6 in presence of DMSO by densitometric analysis
[8] = Displacement of ethidium bromide from DNA (unknown origin) assessed as Stem-Volmer quenching constant at pH 7 by UV-spectroscopic analysis; set-up: unit not given here
[9] = species: Bos taurus; assay: Ratio of binding affinity to calf thymus DNA at pH 8 to binding affinity to calf thymus DNA at pH 6
[10] = Displacement of ethidium bromide from DNA (unknown origin) assessed as Stem-Volmer quenching constant at pH 6 by UV-spectroscopic analysis; set-up: unit not given here
[11] = tested on: Escherichia coli; assay: Induction of Escherichia coli supercoiled pBR322 plasmid DNA photocleavage at 15 uM and pH 6 to 8 measured after 1 hr of UV-irradiation by densitometric analysis
[12] = species: Bos taurus; assay: Binding affinity to calf thymus DNA assessed as binding constant at 15 uM and pH 8 by UV-spectroscopic analysis
[13] = tested on: Escherichia coli; assay: Induction of Escherichia coli supercoiled pBR322 plasmid DNA photocleavage assessed as double stranded break formation per molecule at pH 6 at 15 uM measured after 6 mins of UV-irradiation by densitometric analysis
[14] = tested on: Escherichia coli; assay: Induction of Escherichia coli supercoiled pBR322 plasmid DNA photocleavage assessed as ratio of single stranded break to double stranded break formation per molecule at pH 6 at 15 uM measured after 8 mins of UV-irradiation by densitometric analysis
[15] = tested on: Escherichia coli; assay: Induction of Escherichia coli supercoiled pBR322 plasmid DNA photocleavage assessed as single stranded break formation per molecule at pH 6 at 15 uM measured after 8 mins of UV-irradiation by densitometric analysis
[16] = tested on: Escherichia coli; assay: Induction of Escherichia coli supercoiled pBR322 plasmid DNA photocleavage assessed as ratio of single stranded break to double stranded break formation per molecule at pH 6 at 15 uM measured after 6 mins of UV-irradiation by densitometric analysis
[17] = tested on: Escherichia coli; assay: Induction of Escherichia coli supercoiled pBR322 plasmid DNA photocleavage assessed as double stranded break formation per molecule at pH 6 at 15 uM measured after 8 mins of UV-irradiation by densitometric analysis
[18] = tested on: Escherichia coli; assay: Induction of Escherichia coli supercoiled pBR322 plasmid DNA photocleavage assessed as single stranded break formation per molecule at pH 6 at 15 uM measured after 6 mins of UV-irradiation by densitometric analysis
[19] = tested on: Escherichia coli; assay: Induction of Escherichia coli supercoiled pBR322 plasmid DNA photocleavage assessed as single stranded break formation per molecule at pH 6 at 15 uM measured after 4 mins of UV-irradiation by densitometric analysis
[20] = tested on: Escherichia coli; assay: Induction of Escherichia coli supercoiled pBR322 plasmid DNA photocleavage assessed as double stranded break formation per molecule at pH 6 at 15 uM measured after 4 mins of UV-irradiation by densitometric analysis
[21] = tested on: A-375; assay: Induction of DNA damage in human A375 cells assessed as abasic site formation at 3 uM preincubated for 1 hr followed by UV-irradiation for 2 hrs relative to control; format: functional
[22] = tested on: A-375; assay: Induction of DNA damage in human A375 cells assessed as abasic site formation at 3 uM preincubated for 1 hr followed by UV-irradiation for 2 hrs; format: functional
[23] = tested on: Escherichia coli; assay: Induction of Escherichia coli supercoiled pBR322 plasmid DNA photocleavage at 15 uM and pH 6 in presence of glycerol by densitometric analysis
[24] = tested on: Escherichia coli; assay: Induction of Escherichia coli supercoiled pBR322 plasmid DNA photocleavage at 15 uM and pH 6 in presence of NaN3 by densitometric analysis
[25] = tested on: Escherichia coli; assay: Induction of Escherichia coli supercoiled pBR322 plasmid DNA photocleavage assessed as ratio of single stranded break to double stranded break formation per molecule at pH 6 at 15 uM measured after 4 mins of UV-irradiation by densitometric analysis
[26] = Dissociation constant, pKa of the compound for second ionization at 10 uM by fluorescence analysis; format: physicochemical

SMILES	pKa at 1000 µM [1]	pKa at 10 µM [2]	Kb [3]	pKa at 1000 µM [4]	KSV [5]	Kb [6]	Activity [7]	KSV [8]	Ratio [9]	KSV [10]	Activity [11]	Kb [12]	Activity [13]	Ratio [14]	Activity [15]	Ratio [16]	Activity [17]	Activity [18]	Activity [19]	Activity [20]	also measured
N[C@@H](Cc1ccccc1)C(=O)NCCC[C@H](N)C(=O)Nc1ccc(C#Cc2c(F)c(F)nc(F)c2F)cc1	7.2	7.1	10700	7.2	6.3	12700	Active	23.6	3	27.8	Active	32100	–	–	–	–	–	–	–	–	–
C[C@H](N)C(=O)NCCC[C@H](N)C(=O)Nc1ccc(C#Cc2c(F)c(F)nc(F)c2F)cc1	7	6.6	4440	7.8	5.2	6750	–	7.8	4.6	11.1	Active	20200	–	–	–	–	–	–	–	–	–
N[C@@H](Cc1ccccc1)C(=O)NCCCC[C@H](N)C(=O)Nc1ccc(C#Cc2c(F)c(F)nc(F)c2F)cc1	6.6	7.3	11700	6.7	6.7	13100	–	9.2	5.7	27.8	–	66700	0.13	8	1.7	8.04	0.21	1	0.7	0	fold change (FC) [21]: 2; Activity [22]: 17
NCC(=O)NCCC[C@H](N)C(=O)Nc1ccc(C#Cc2c(F)c(F)nc(F)c2F)cc1	7.2	7	2830	7.7	1.5	10500	Active	4.4	> 4	7	–	15000	–	–	–	–	–	–	–	–	Activity [23]: Active; Activity [24]: Active
C[C@H](N)C(=O)NCCCC[C@H](N)C(=O)Nc1ccc(C#Cc2c(F)c(F)nc(F)c2F)cc1	7.3	7.3	2890	7.4	3.4	8890	–	5.7	10.5	6.8	–	30300	0.19	6.6	1.9	9.1	0.29	1.7	0.6	0.07	Ratio [25]: 9.4
N[C@@H](Cc1ccccc1)C(=O)NC[C@H](N)C(=O)Nc1ccc(C#Cc2c(F)c(F)nc(F)c2F)cc1	–	6.3	22300	–	2.6	14600	–	5.9	1.1	9.4	–	23300	–	–	–	–	–	–	–	–	pKa at 10 µM [26]: 7.8
N[C@@H](Cc1c[nH]c2ccccc12)C(=O)NCCCC[C@H](N)C(=O)Nc1ccc(C#Cc2c(F)c(F)nc(F)c2F)cc1	–	7.3	10400	–	5.7	16800	Active	9.2	1.7	26	–	18000	0.15	4.3	0.9	5.3	0.2	0.8	0.7	0	Activity [23]: Active; Activity [24]: Active
C[C@H](N)C(=O)NC[C@H](N)C(=O)Nc1ccc(C#Cc2c(F)c(F)nc(F)c2F)cc1	–	5.5	5850	–	3.1	15000	–	4.9	3.5	9	Active	20500	–	–	–	–	–	–	–	–	pKa at 10 µM [26]: 8.1
